Assay results taken from article PMC7340670, “Phase I study of TAS-115, a novel oral multi-kinase inhibitor, in patients with advanced solid tumors” (Investigational New Drugs, 2019).
pIC50: −log10 of the molar value. “Also recorded” adds a separate entry of the source. Like-named read-outs stand apart in the source and are kept apart here.

Tests used:
patients = test system: patients; parameters: method as in data on file; conditions: tablet formulation, ref data on file, cited from earlier work
bone lesions = assay: Bone scintigraphy / bone scan index (BSI) response; assay type: in vivo, human
Description: (§1) The secondary objectives were to investigate the PK profile, safety, tolerability, antitumor activity, and pharmacodynamic profile of TAS-115. AEs were graded according to the CTCAE Version 4.03. Response was assessed by radiologic imaging at 6 and 12 weeks from the first dose, and every 12 weeks thereafter. Antitumor effect was evaluated by investigators using Response Evaluation Criteria in Solid Tumors (RECIST) Version 1.1 [17]. If a patient had bone lesions, evaluation was performed using bone scintigraphy and bone scan index (BSI) were calculated by BONENAVI® software (FUJIFILM Toyama Chemical, Co., Ltd., Japan). BSI response was defined as ≥30% reduction in BSI [18]. An exploratory objective was to assess changes in protein levels of soluble MET (sMET), VEGF, and soluble VEGFR2 (sVEGFR2) in plasma, and HGF in serum as pharmacodynamic markers.

VEGF = assay: Pharmacodynamic marker: VEGF in plasma; assay type: in vivo, human
Description: as §1
(§2) For pharmacodynamic analyses, blood samples were collected on Days 1 and 22 (before dosing, each) in part 1, and Days 1 (pre-dosing) and 19 (pre- and post 6 h) in part 2 and the expansion part. […]
(§3) The planned sample size was up to 90 patients, and it was not based on the formal calculation because of experimental phase I trial. For pharmacodynamics parameters, P values were calculated using the paired t-test for measured values from merged doses. […]

[1] = test system: osteoclast differentiation; parameters: method as in data on file; conditions: in vitro; ref data on file; cited from earlier work
[2] = test system: AKT and ERK1/2 phosphorylation; parameters: method as in PMID 27539855, PMID 27736957; conditions: mouse osteoclasts in vitro; cited from earlier work
[3] = test system: tumor growth and abnormal bone remodeling; parameters: method as in PMID 24140932, PMID 27539855, PMID 27736957; conditions: cited from earlier work
192-panel kinase = molecular target: 192-panel kinase; parameters: method as in PMID 24140932; conditions: 192-panel kinase assay; read-out: IC50 for 53 (28%) kinases, including MET, AXL, c-kit, Src, PDGFR-alpha and –beta; cited from earlier work
soluble VEGFR2 (sVEGFR2) = assay: Pharmacodynamic marker: sVEGFR2 in plasma; assay type: in vivo, human
Description: as §1, §2, §3

advanced solid tumors = assay: Antitumor effect by RECIST Version 1.1; assay type: in vivo, human
Description: as §1

soluble MET (sMET) = assay: Pharmacodynamic marker: sMET in plasma; assay type: in vivo, human
Description: as §1
For pharmacodynamic analyses, blood samples were collected on Days 1 and 22 (before dosing, each) in part 1, and Days 1 (pre-dosing) and 19 (pre- and post 6 h) in part 2 and the expansion part. Patients provided written informed consent to provide blood samples for exploratory pharmacodynamics assessments.
The planned sample size was up to 90 patients, and it was not based on the formal calculation because of experimental phase I trial. For pharmacodynamics parameters, P values were calculated using the paired t-test for measured values from merged doses. The data cut-off date for the analyses presented in this report was August 19, 2018. This study is registered with Japan Pharmaceutical Information Center Clinical Trial registry, number JapicCTI-132333.

[4] = Plasma pharmacokinetics in the phase I study; assay type: in vivo, human; conditions: for half-life / AUC(0-t) / Cmax / Tmax: human, plasma; for half-life: read-out: t1/2 Mean (SD) (converted); for AUC(0-t): read-out: AUC0-24 Mean (SD); for Cmax: read-out: Cmax Mean (SD)
Description: Blood samples were collected for plasma PK assessments pre-dosing and at 1, 2, 3, 4, 6, 8, 12, and 24 h after TAS-115 administration on Days 1 and 8 of cycle 1 in part 1, and on Days 1, 8, and 19 of cycle 1 in part 2 (only pre-dosing on Day 8). TAS-115 concentrations were measured by validated liquid chromatography-tandem mass spectrometry. A preliminary assessment of the effect of food on the PK profile was performed. Blood samples after administration under fed and empty stomach conditions were collected from the first six patients in the expansion part. Pharmacokinetic parameters were determined using non-compartmental analyses (Phoenix® WinNonlin® version 6.4; Certara LP, Princeton, NJ, USA).

[5] = expansion part, 650 mg, six patients, not statistically significant
[6] = oral, 200 mg/day, Part 1, Day 1 (single administration), 200 mg/day, n=3
[7] = oral, 200 mg/day, Part 1, Day 8 (multiple administration), 200 mg/day, n=3
[8] = oral, 300 mg/day, Part 1, Day 1 (single administration), 300 mg/day, n=3
[9] = oral, 300 mg/day, Part 1, Day 8 (multiple administration), 300 mg/day, n=2
[10] = oral, 450 mg/day, Part 1, Day 1 (single administration), 450 mg/day, n=3
[11] = oral, 450 mg/day, Part 1, Day 8 (multiple administration), 450 mg/day, n=3
[12] = oral, 650 mg/day, Expansion part, Empty Stomach, 650 mg/day, n=6
[13] = oral, 650 mg/day, Expansion part, Fed, 650 mg/day, n=6
[14] = oral, 650 mg/day, Part 1, Day 1 (single administration), 650 mg/day, n=6
[15] = oral, 650 mg/day, Part 1, Day 8 (multiple administration), 650 mg/day, n=5
[16] = oral, 650 mg/day, Part 2, Day 1 (single administration), 650 mg/day, n=6
[17] = oral, 650 mg/day, Part 2, Day 19 (multiple administration), 650 mg/day, n=6
[18] = oral, 800 mg/day, Part 1, Day 1 (single administration), 800 mg/day, n=6
[19] = oral, 800 mg/day, Part 1, Day 8 (multiple administration), 800 mg/day, n=6

For `CNC(=O)c1cc2c(Oc3ccc(NC(=S)NC(=O)Cc4ccccc4)cc3F)ccnc2cc1OC` [TAS-115], the absorption (patients) is given as “saturated between 100 and 1200 mg”, the “dose-limiting toxicities (DLTs)” value (patients; ten patients, 100, 200, 400, 800, 1200 mg SID and 400 mg BID) is given as “no dose-limiting toxicities (DLTs) were observed” and the “antitumor effect in a patient with CRPC with multiple bone metastases” value (bone lesions; 650 mg 5-on/2-off) is given as “notable improvement was observed in the bone scan”. For the same molecule, the “antitumor effect in a patient with epithelioid sarcoma with multiple metastases” value (bone lesions; 650 mg 5-on/2-off, 6 weeks after the first administration) was “marked decrease of hot spots on bone scans and reduction in fluorodesoxyglucose uptake”, the “BSI response rate (≥30% reduction in BSI)” value (bone lesions; patients with bone lesions, 14 of 25) was 56.0% and the “change of VEGF” value (VEGF; 6 h post-dose on Day 19 compared with pre-dose on Day 19, P = .0844) was “increase”. The “marked alterations of VEGF from Day 1” value (VEGF; in vivo) was “not observed”, the “osteoclast differentiation induced by M-CSF and RANKL” value [1] was “dose-dependent inhibition” and the “HGF, and VEGF-induced phosphorylation of signaling factors (AKT and ERK1/2)” value [2] was “suppressed”. For the same molecule, the “antitumor effect in mouse xenograft models” value [3] was “potent antitumor effect, inhibiting tumor growth and abnormal bone remodeling”, the pIC50 (192-panel kinase) was over 6.00 and the “change of VEGFR2” value (soluble VEGFR2 (sVEGFR2); 6 h post-dose on Day 19 compared with pre-dose on Day 19, P = .0204) was “decrease”. For the same molecule, the “marked alterations of sVEGFR2 from Day 1” value (soluble VEGFR2 (sVEGFR2); in vivo) was “not observed”, the “antitumor effect in a patient with bladder cancer with metastases” value (advanced solid tumors; 650 mg 5-on/2-off discontinued at week 7, after discontinuation without further antitumor treatment) was “the lung metastatic lesions disappeared” and the “complete or partial response by RECIST evaluation” value (advanced solid tumors; all parts) was “no patients who showed complete or partial response”. For the same molecule, the “minor tumor shrinkage of target lesions” value (advanced solid tumors; patients determined as having progressive disease (PD)) was “four patients”, the “change of sMET in plasma” value (soluble MET (sMET); Day 19, 6 h after administration, part 2 and expansion part, P = .0055) was “significant increase” and the “change of sMET in plasma” value (soluble MET (sMET); Day 19 pre-dose, part 2 and expansion part, P = .0015) was “significant increase”. For the same molecule, the “change of sMET in plasma” value (soluble MET (sMET); Day 22 in part 1, P = .0031) was “significant increase”, the “dose dependence of AUC0–24 / systemic exposure” value ([4]; after single administration, part 1) was “increased almost dose-proportionally; also recorded: increased dose-proportionally over the tested range from 200 mg to 650 mg” and the “geometric mean ratio (90% CI) of AUC0–24, fed to empty stomach condition” value [4, 5] was 0.812 (0.414–1.593). The “geometric mean ratio (90% CI) of Cmax, fed to empty stomach condition” value [4, 5] was 0.545 (0.243–1.224), the half-life ([4]; oral, 200 mg/day, Part 1, Day 1 (single administration), 200 mg/day, n=2) was 15.2 h and the AUC(0-t) [4, 6] was 20000 ng·h/mL. For the same molecule, the Cmax [4, 6] was 2490 ng/mL, the Tmax ([4]; oral, 200 mg/day, Part 1, Day 1 (single administration), 200 mg/day, n=3, read-out: tmax Median) was 1 h and the AUC(0-t) [4, 7] was 22700 ng·h/mL. It also gave a Cmax [4, 7] of 2950 ng/mL, a half-life [4, 7] of 26.6 h and a Tmax ([4]; oral, 200 mg/day, Part 1, Day 8 (multiple administration), 200 mg/day, n=3, read-out: tmax Median) of 1 h. For the same molecule, the AUC(0-t) [4, 8] was 23200 ng·h/mL, the Cmax [4, 8] was 3500 ng/mL and the half-life [4, 8] was 20.4 h. For the same molecule, the Tmax ([4]; oral, 300 mg/day, Part 1, Day 1 (single administration), 300 mg/day, n=3, read-out: tmax Median) was 1 h, the AUC(0-t) [4, 9] was 32500 ng·h/mL and the Cmax [4, 9] was 3900 ng/mL. It also gave a half-life [4, 9] of 15.9 h, a Tmax ([4]; oral, 300 mg/day, Part 1, Day 8 (multiple administration), 300 mg/day, n=2, read-out: tmax Median) of 1.5 h and an AUC(0-t) [4, 10] of 28800 ng·h/mL. It also gave a Cmax [4, 10] of 4540 ng/mL, a half-life [4, 10] of 12.6 h and a Tmax ([4]; oral, 450 mg/day, Part 1, Day 1 (single administration), 450 mg/day, n=3, read-out: tmax Median) of 1 h. For the same molecule, the AUC(0-t) [4, 11] was 37000 ng·h/mL, the Cmax [4, 11] was 4310 ng/mL and the half-life [4, 11] was 11.4 h. The Tmax ([4]; oral, 450 mg/day, Part 1, Day 8 (multiple administration), 450 mg/day, n=3, read-out: tmax Median) was 1 h, the AUC(0-t) [4, 12] was 39300 ng·h/mL and the Cmax [4, 12] was 4760 ng/mL. It also gave a Tmax ([4]; oral, 650 mg/day, Expansion part, Empty Stomach, 650 mg/day, n=6, read-out: tmax Median) of 2 h, an AUC(0-t) [4, 13] of 41700 ng·h/mL and a Cmax [4, 13] of 3900 ng/mL. For the same molecule, the Tmax ([4]; oral, 650 mg/day, Expansion part, Fed, 650 mg/day, n=6, read-out: tmax Median) was 5 h, the AUC(0-t) [4, 14] was 59700 ng·h/mL and the Cmax [4, 14] was 7700 ng/mL. It also gave a half-life [4, 14] of 10.3 h, a Tmax ([4]; oral, 650 mg/day, Part 1, Day 1 (single administration), 650 mg/day, n=6, read-out: tmax Median) of 1 h and a half-life ([4]; oral, 650 mg/day, Part 1, Day 8 (multiple administration), 650 mg/day, n=4) of 8.7 h. It also gave an AUC(0-t) [4, 15] of 54500 ng·h/mL, a Cmax [4, 15] of 5040 ng/mL and a Tmax ([4]; oral, 650 mg/day, Part 1, Day 8 (multiple administration), 650 mg/day, n=5, read-out: tmax Median) of 2 h. The half-life ([4]; oral, 650 mg/day, Part 2, Day 1 (single administration), 650 mg/day, n=5) was 14.5 h, the AUC(0-t) [4, 16] was 49800 ng·h/mL and the Cmax [4, 16] was 7510 ng/mL. The Tmax ([4]; oral, 650 mg/day, Part 2, Day 1 (single administration), 650 mg/day, n=6, read-out: tmax Median) was 1 h, the AUC(0-t) [4, 17] was 56700 ng·h/mL and the Cmax [4, 17] was 7370 ng/mL. For the same molecule, the half-life [4, 17] was 16.8 h, the Tmax ([4]; oral, 650 mg/day, Part 2, Day 19 (multiple administration), 650 mg/day, n=6, read-out: tmax Median) was 1 h and the AUC(0-t) [4, 18] was 37800 ng·h/mL. It also gave a Cmax [4, 18] of 4910 ng/mL, a half-life [4, 18] of 13.7 h and a Tmax ([4]; oral, 800 mg/day, Part 1, Day 1 (single administration), 800 mg/day, n=6, read-out: tmax Median) of 1 h. It also gave an AUC(0-t) [4, 19] of 44600 ng·h/mL, a Cmax [4, 19] of 5220 ng/mL and a half-life [4, 19] of 12.8 h. For the same molecule, the Tmax ([4]; oral, 800 mg/day, Part 1, Day 8 (multiple administration), 800 mg/day, n=6, read-out: tmax Median) was 1.5 h, the Tmax ([4]; po, oral administration, across dose levels, read-out: median time to maximum concentration (tmax)) was 1 to 2 h and the accumulation ([4]; multiple dosing for 8 days, part 1) was “no accumulation”.
